The structures appear in SMILES notation. Marks after values point to notes of the source that are not given here.

Experiment [1] deals with leukocyte NADPH oxidase. The experiment in a line: Effect on leukocyte NADPH oxidase (PMA-stimulated lucigenin chemiluminescence). In kind it is cell-based, rat. The procedure: Blood was drawn from the abdominal aorta of normal male Wister rats (Japan SLC) and immediately mixed with an ice-cold lysis buffer at 42 mL of the buffer per 3 mL of the blood.
After 5 min, the mixture was centrifuged at 4° C., 1100 rpm for 5 min. The precipitate was suspended in an ice-cold Lysis buffer, and centrifuged again at 4° C., 1100 rpm for 5 min. This operation was repeated 3 times to obtain leukocytes. The obtained leukocytes were suspended in Krebs-Hepes buffer and the number of the cells was adjusted to 1×10^6/ml. 0.25 mM Lucigenin and the test agent were added, Phorbol 12-myristate 13-acetate (hereinafter to be indicated as “PMA”, SIGMA) was further added, and the chemiluminescence value was measured at 37° C. for 10 min.
The inhibitory rate (%) was calculated by the following formula: inhibitory rate (%)=100−[(A−C)/(B−C))×[…] wherein A is the total chemiluminescence value of the leukocyte suspension with the addition of the test compound, B is the total chemiluminescence value of the leukocyte suspension (control) without addition of the test compound, and C is the total chemiluminescence value of the leukocyte suspension without stimulation with PMA.

Experiment [2] has as its system atherosclerosis rabbit model. The experiment in a line: Atherosclerosis inhibitory effect in cholesterol-fed rabbits. Particulars: for lipid-deposition area (%), abdominal aorta / lipid-deposition area (%), thoracic aorta: 12 weeks, 0.67% cholesterol feed; for lipid-deposition area (%), abdominal aorta / lipid-deposition area (%), thoracic aorta / Plasma lipid concentration TC: mean ± standard error; for Plasma lipid concentration TC: 12 weeks from cholesterol-loading. The experiment is classed as in vivo. As to the method: A 0.67% cholesterol-containing feed (40 g/kg/day) and compound A were given to male NZW rabbits (Japan SLC) for 12 weeks. Blood was drawn from the auricular vein using a heparinized capillary tube, and centrifuged at 3000 rpm for 10 min. The total cholesterol (hereinafter to be indicated as “TC”) value of the obtained plasma was measured by an enzyme assay using a measurement kit.
After 12 weeks, the carotid artery was peeled and removed with pentobarbital anesthesia, and exsanguinated to remove the aorta. The obtained carotid artery was immediately placed in Krebs buffer, the surrounding tissues were carefully removed, and the ring specimen was prepared trying not to damage endothelial cells. Then, the ring specimen was suspended in a Magnus tank filled with Krebs buffer at 37° C. under an air flow of 95% O2-5% CO2 mixed gas. The experiment was conducted after reaching a steady state by loading 2 g tension.
For the measurement of a relaxation response, the specimen was contracted in advance with norepinephrine, and when the contraction reached steady state, acetylcholine was cumulatively added. The vascular relaxation rate was determined based on the contraction induced by 10 μM norepinephrine as 100%.
Using a transducer (NIHON KOHDEN), tension was measured isometrically. The significant difference was tested for by variance analysis with two-way layout (Dunnett's method) relative to the control group.
The removed aorta was divided into arch aorta, thoracic aorta and abdominal aorta, fixed with 10% formalin buffer, photographed, the area of the lipid adhered to the aorta was measured and the proportion of the area of the lipid-deposition area relative to the area of aorta was determined.

For experiment [3], the system named is NAD(P)H oxidase in diabetic rat aorta. Put plainly: NAD(P)H oxidase activity (superoxide anion production, lucigenin chemiluminescence) in aorta of streptozotocin diabetic rats after oral administration. The experiment is classed as in vivo. Particulars: for inhibitory rate (%), NAD(P)H oxidase in diabetic rat aorta: once a day for 3 days. As to the method:
Streptozotocin (40 mg/kg) dissolved in 0.05 M citric acid buffer (pH 4.5) was administered into the tail vein of male Wistar rats (Japan SLC) to prepare diabetic rats. At 1 week to 8 weeks from the intravenous injection of streptozotocin, blood was drawn from the tail vein using a capillary treated with heparin, which was immediately cooled with ice and centrifuged at 3000 rpm, 15 min, 4° C. to give serum. The blood glucose level was measured by enzyme assay using a glucose measurement kit “GLU neo sinotest” (sinotest) and a microplate reader (SPECTRA MAX250, Molecular Devices).
The NAD(P)H oxidase activity was measured by the following method, which was modified by the method of the David. G. Harrison et al. (J. Clin. Invest. 91, 2546-2551, 1993), at 4 days from the start of the test, with superoxide anion production in aorta as an index.
To be specific, normal rat or diabetic rat free of the above-mentioned treatment was exsanguinated from the abdominal aorta, their thoracic aorta was removed. The removed thoracic aorta was immersed in Krebs-Hepes buffer and marginal tissues were removed to prepare an about 5 mm ring specimen. This ring specimen was preincubate in Krebs-Hepes buffer at 37° C. for 10 min and transferred to Krebs-Hepes buffer containing 0.25 mM lucigenin (SIGMA). 500 μM NADH (SIGMA) was added and chemiluminescence value (chemiluminescence: unit RLU: relative light units) was measured using a luminometer (MULTI-BIOLUMAT LB9505C, Warrack.Berthold) at 37° C. for 10 min. The total value of chemiluminescence was calculated from the area under the curve (hereinafter to be referred to as “AUC”) drawn by plotting the chemiluminescence value (vertical axis) relative to the measurement time (horizontal axis). The measured total value of chemiluminescence was divided by the wet weight of the vascular ring specimen and standardized to the superoxide anion production per aorta unit weight.
The inhibitory rate (%) was calculated from the following formula: inhibitory rate (%)=100−[(A−C)/(B−C)]×100
wherein A was the standardized value of chemiluminescence of diabetic rat administered with the test compound, B was the standardized value of chemiluminescence of diabetic rat without administration of the test compound, and C was the standardized value of chemiluminescence of normal rat without administration of the test compound.

The test system of experiment [4] is rabbit chronic myocardial infarction (heart failure) model. Put plainly: Rabbit chronic myocardial infarction (heart failure) model. The experiment is classed as in vivo. As to the method:
Male NZW rabbits (Japan SLC) were fixed in the dorsal position and subjected to thoracotomy with pentobarbital anesthesia. A silk thread (No. 4) was applied to the basal part of the left coronary artery, a polyethylene tube (length 1 cm) was further applied and the left coronary artery was ligated using a thread. After 2 hr from the ligation, the thread on the polyethylene tube was cut to reperfusion. At 2 hr from the reperfusion, compound A (1 mg/kg) was administered once, and administered once a day for 12 weeks. After 12 weeks, an excess pentobarbital was administered, the heart was removed, and the weight thereof and the thickness of the left ventricle center wall were measured.
The compound was evaluated by the mortality rate, heart weight and thickness of left ventricle.

[5] abbreviates: 1 mg/kg once a day for 12 weeks.
[6] abbreviates: 1 mg/kg once a day, deaths/animals.

Take `C[C@@H](Nc1nnc(-c2ccccc2)c2ccccc12)C1CCCCC1.O=C(O)/C=C\C(=O)O` [compound A]: in experiment [1] (1 μM, PMA-stimulated rat leukocytes, mean ± standard error), the “inhibitory rate (%), leukocyte NADPH oxidase” value is 2.4 ± 13.6%. In addition, in experiment [1] (result in words), the “inhibitory effect on leukocyte NADPH oxidase” value is “did not show an inhibitory effect on leukocyte NADPH oxidase”. Further, in experiment [2] (1 mg/kg), the “lipid-deposition area (%), abdominal aorta” value is listed as 25.4 ± 6.2 %; the “lipid-deposition area (%), thoracic aorta” value turned out to be 62.1 ± 10.0 %; the “Plasma lipid concentration TC” value is 1895.3 ± 244.6 mg/dL. In experiment [2] (10 mg/kg), the “lipid-deposition area (%), abdominal aorta” value is given as 18.2 ± 2.2 %; the “lipid-deposition area (%), thoracic aorta” value amounted to 56.5 ± 10.5 %; the “Plasma lipid concentration TC” value came out at 1887.9 ± 103.9 mg/dL. The “endothelial-dependent relaxation response of carotid artery by Ach” value in experiment [2] (Ach 10^−8 to 10^−5 M, FIG. 1, result in words) is “significantly improved as compared to the control group”. In experiment [3] (1 mg/kg oral), the “inhibitory rate (%), NAD(P)H oxidase in diabetic rat aorta” value worked out at 76.9%. Also, in experiment [3] (10 mg/kg oral), the “inhibitory rate (%), NAD(P)H oxidase in diabetic rat aorta” value is 105.8%. Besides, the “inhibitory rate (%), NAD(P)H oxidase activity in diabetic rat aorta (Table 2)” value in experiment [3] (10 mg/kg orally once a day for 3 days) is listed as 105.8%. The “chemiluminescence (×10^5 RLU/wet weight of aorta)” value in experiment [3] (diabetic rat aorta, 10 mg/kg orally once a day for 3 days, mean ± standard error) is 3.8 ± 0.6 ×10^5 RLU/wet weight of aorta. The compound further yielded a mortality rate in experiment [4] (1 mg/kg once a day) of 8%. Besides, in experiment [4] (setting [5]), the “heart weight (g/kg body weight)” value is listed as 2.05* g/kg body weight and the “thickness (mm) of left ventricle” value is 1.17* mm. In addition, in experiment [4] (setting [6]), the “cumulative mortality, 2 weeks after ligation” value is recorded as 0/12 and the “cumulative mortality, 4 weeks after ligation” value is reported as 1/12.

The record behind these values is patent US20070082910A1, “Specific nad(p)h oxidase inhibitor” (Mitsubishi Pharma Corporation, priority 2003, published 2007).
